Experimental data reported in article PMC3547732 (Chemistry Central Journal, 2012).

Key:
[1] = Enthalpy of solution by microreaction calorimetry; assay type: physicochemical; conditions: 25°C; for Molar enthalpy of solution in its own solvent, Solvates (ΔsolH^2): each solvate in its own solvent of solvation
Procedure: Molar enthalpy of solution (ΔHsol) was determined in phosphate buffer (pH8) as well as in methanol.
In order to determine the enthalpy associated with the solvation process the enthalpy of solution of a particular solvate was determined in its own solvent.
(3) ΔsolyH=ΔsolH^1−ΔsolH^2
Calorimetric studies were performed on Microreaction calorimeter obtained from Thermal Hazards Technology, UK. Two different solvents, viz, the phosphate buffer (pH 2) and methanol were used to determine the enthalpy of solution and the measurements were performed at 25°C. The size of sample used in this study ranged from 10 to 20 mg and was weighed (Sartorius Model CP225D) into a cylindrical glass tube covered with parafilm on one side. This cylindrical tube was submerged into the ampoule containing the solvent. A plunger with a cap was put from the open end of the tube. The same solvent was put into the reference ampoule. These were put into the sample and reference holes until both rest on the base of the holes. The apparatus was maintained at constant temperature at 25°C (±0.0005°C). The parafilm was shattered mechanically by means of plunger.

[2] = tested on: Triton induced hyperlipidemia; experiment: Hypolipidemic activity in Triton induced hyperlipidemia in rats; assay type: in vivo, male Wistar rats; conditions: Triton treated rats, 30 mg/kg oral gavage 2 h before Triton i.p., plasma 18 h after triton injection
Procedure: The rats were housed under optimal laboratory conditions, maintained on 12 h light and dark cycle and had free access to food (Hindustan Lever Products, Kolkata, India) and water. Animals were acclimatized to laboratory conditions before the tests. All experiments were carried out between 0900 and 1700 h. The experimental protocols were approved by the Institutional Animal Ethics Committee and conducted according to the Indian National Science Academy guidelines for the use and care of animals. Fifty five male Wistar rats were divided into the following 11 groups containing 5 animals in each group: Atrovastain and various solvates were freshly suspended in 0.5% carboxymethyl cellulose and administered by oral gavage. Two hours later, all groups except control animals received intraperitonial injection of Triton (100 mg/kg). Eighteen hours after triton injection, blood was collected from tail vein. Plasma was separated and stored at −20°C for further biochemical analysis. Total cholesterol and triglyceride were analyzed in plasma samples using diagnostic kits as per manufacturer instructions.

[3] = Enthalpy of solution by microreaction calorimetry; assay type: physicochemical; conditions: 25°C
[4] = Desolvation of solvates by DSC and TGA; assay type: physicochemical; conditions: for Desolvation temperature: DSC desolvation endotherm maximum, 10°C/min; for Enthalpy of desolvation, ΔdesolvH calculated from equation 4: calculated from enthalpies of solution, heat capacities and enthalpy of vapourization; for Enthalpy of desolvation per mole of solvent (binding energy): equation 1 from DSC desolvation enthalpy and TGA mass loss
Text: The desolvation temperatures account for the stability of solvates as the desolvation temperature in all these forms is much higher than the boiling point of the corresponding solvent. The quantitative estimate of the stability of these solvates is established by determining the binding energy for the solvents in all the solvates using equation 1 where the percent mass loss measured over the TG desolvation step of each solvate (ΔmS%) was related to the enthalpy change calculated over the corresponding DSC desolvation endotherm (ΔHSexp).
(1) ΔHS=ΔHSexp×100Δms%×Ms
where ΔHS (J mol^-1) is the enthalpy of desolvation (or binding energy) per mole of the bound solvent, MS is the molecular mass of the solvent.
(4) ΔdesolyH=ΔsolnH^2−ΔsolnH^1−ΔCPTdesoly−25+1/2ΔyapH
. A mass between 2–8 mg was taken into the aluminium pan, covered with lid and sealed. DSC curves were obtained under a nitrogen purge of 50 mL per minute at a heating rate of 10°C per minute with the temperature range from 50-350°C.
Loss of solvent from the samples was characterized by TGA obtained by TA Instruments-Waters LLC, USA. TGA traces were recorded at heating rates of 10°C per minute under a nitrogen purge of 50 ml per minute. Samples with masses between 1–10 mg were analyzed using platinum pan. Mass loss (%) was calculated based on the mass of the original sample.

| Structure (SMILES) | Molar enthalpy of solution in its own solvent, Solvates (ΔsolH^2) [1] [kcal/mol] | Molar enthalpy of solution, Methanol ΔsolH (methanol) [1] [kcal/mol] | Total Cholesterol [2] [mg/dL] | Triglyceride [2] [mg/dL] | Molar enthalpy of solution, Phosphate buffer (pH8) ΔsolH [3] [kJ mol^-1] | Desolvation temperature ([4]; listed as Solvate-VI) [°C] | Desolvation temperature ([4]; listed as solvate-VI) [°C] | Enthalpy of desolvation, ΔdesolvH calculated from equation 4 [4] [kcal/mol] | Enthalpy of desolvation per mole of solvent (binding energy) [4] [kcal/mol] | Enthalpy of desolvation, ΔdesolvH from DSC [4] [kcal/mol] | Desolvation temperature [4] [°C] |
| --- | --- | --- | --- | --- | --- | --- | --- | --- | --- | --- | --- |
| CC(C)=O.CC(C)=O.CC(C)c1c(C(=O)Nc2ccccc2)c(-c2ccccc2)c(-c2ccc(F)cc2)n1CC[C@@H](O)C[C@@H](O)CC(=O)[O-].CC(C)c1c(C(=O)Nc2ccccc2)c(-c2ccccc2)c(-c2ccc(F)cc2)n1CC[C@@H](O)C[C@@H](O)CC(=O)[O-].CC(C)c1c(C(=O)Nc2ccccc2)c(-c2ccccc2)c(-c2ccc(F)cc2)n1CC[C@@H](O)C[C@@H](O)CC(=O)[O-].CC(C)c1c(C(=O)Nc2ccccc2)c(-c2ccccc2)c(-c2ccc(F)cc2)n1CC[C@@H](O)C[C@@H](O)CC(=O)[O-].CCO.[Ca+2].[Ca+2] [Solvate VI] | -2.581 | 1.22 | 197 | 174 | 8.35 | 72.53 | 72.5 | 12.43 | 15.69 | 13.56 |  |
| CC(C)c1c(C(=O)Nc2ccccc2)c(-c2ccccc2)c(-c2ccc(F)cc2)n1CC[C@@H](O)C[C@@H](O)CC(=O)[O-].CC(C)c1c(C(=O)Nc2ccccc2)c(-c2ccccc2)c(-c2ccc(F)cc2)n1CC[C@@H](O)C[C@@H](O)CC(=O)[O-].CO.[Ca+2] [Solvate V] | 0.507 | 0.507 | 198 | 170 | 3.85 |  |  | 6.381 | 13.12 | 6.279 | 70.15 |
